Some test systems named below: KM12 colon; CAKI-1 renal; K-562 leukemia; HS 578T breast; SK-MEL-2 melanoma; OVCAR-5 ovarian; T-47D breast; MALME-3M melanoma; TK-10 renal; SN12C renal.
Assay in all cases: DTP human tumour cell line panel, 48 h

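Briefly, cells in 96-well plates were exposed to five compound concentrations for 48 h, and endpoints were estimated by linear interpolation. GI50 marks 50% less growth. The concentration for full growth arrest is given as TGI.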

In general, GI50 refers to the concentration at which growth is held to half of that of the control. The term TGI denotes the concentration giving total growth inhibition. Read a low TGI as greater sensitivity of the cells. With `O=C(N1CCC(CN=c2cc3n(-c4ccc(Cl)cc4)c4ccccc4nc-3cc2Nc2ccc(Cl)cc2)CC1)N1CC1`, the GI50 was 1.4 µM in the assay on KM12 colon; 1.38 µM with CAKI-1 renal; 0.286 µM in the assay on K-562 leukemia; 1.48 µM in the assay on HS 578T breast; 0.632 µM in the assay on SK-MEL-2 melanoma; 1.85 µM with OVCAR-5 ovarian. The GI50 with T-47D breast was 2.41 µM. Besides, the TGI in the assay with KM12 colon came out at 3.21 µM; with CAKI-1 renal, 3.88 µM; in the assay with HS 578T breast it was 3.54 µM; in the assay on SK-MEL-2 melanoma, 2.04 µM; in the assay with OVCAR-5 ovarian, 3.39 µM; in the assay with T-47D breast, 5.91 µM.
For the molecule `CCOc1ccc(N=Nc2ccc3oc(=O)c(/C(C)=N\NC(=O)CC(=O)Nc4ccc(Cl)cc4)cc3c2)cc1`, the TGI is 30.3 µM in the assay on MALME-3M melanoma; 35.5 µM in the assay with TK-10 renal; 60.7 µM in the assay on KM12 colon; above 100 µM in the assay on CAKI-1 renal; 70.6 µM in the assay with K-562 leukemia; 9.32 µM in the assay with SK-MEL-2 melanoma. The total growth inhibition concentration (TGI) was above 100 µM in the assay with OVCAR-5 ovarian and 81.1 µM in the assay with SN12C renal.
On to `CCOC(=O)C1(C(=O)OCC)CSC1`, for which the TGI in the assay on TK-10 renal, in the assay on KM12 colon, in the assay on K-562 leukemia, with HS 578T breast, with SN12C renal and in the assay on T-47D breast was above 100 µM throughout.
In the case of `CCSc1nc(N2CCCCC2)c2cn[nH]c2n1`, the GI50 is 37.1 µM with MALME-3M melanoma; 36.8 µM in the assay with TK-10 renal; 29 µM with KM12 colon; 19.8 µM in the assay with CAKI-1 renal; 38 µM with K-562 leukemia; 32.7 µM in the assay on HS 578T breast. The GI50 was 39.8 µM in the assay with SK-MEL-2 melanoma, 88.7 µM in the assay with OVCAR-5 ovarian, 25.7 µM in the assay with SN12C renal and 16 µM with T-47D breast. Also, the TGI is 97.5 µM with MALME-3M melanoma; above 100 µM in the assay on TK-10 renal; above 100 µM in the assay on KM12 colon; 59.7 µM in the assay with CAKI-1 renal; above 100 µM with K-562 leukemia; above 100 µM in the assay on HS 578T breast. Further, the TGI in the assay on SK-MEL-2 melanoma is above 100 µM; in the assay with OVCAR-5 ovarian it was above 100 µM; with SN12C renal, above 100 µM; in the assay with T-47D breast, 62.4 µM.
For `O=C(O)/C=C/c1cnc[nH]1`, the TGI in the assay with MALME-3M melanoma, in the assay on KM12 colon, with CAKI-1 renal, with K-562 leukemia, in the assay with SK-MEL-2 melanoma and in the assay on OVCAR-5 ovarian was above 500 µM throughout. The same molecule returned a TGI in the assay on SN12C renal above 500 µM.

These data come from PubChem BioAssay (NCI).
